Consider one compound from patent publication US10159685B2, “Vascular calcification” (Cambridge Enterprise Limited, priority 2016, dated 2018).

Where two headings read alike, the source gives them in different places. Marks after values point to notes of the source that are not given here.

The test system of data set [1] is bovine vascular smooth muscle cells (bVSMCs). It counts as cell-based. To be noted: 7 days; for Cell viability of bVSMCs after seven days (MTT signal, relative to control): mean of three experiments. The method, then: The toxicity of the identified compounds to bovine VSMCs was measured using the MTT assay, which measures the activity of dehydrogenase enzymes of live cells. This assay can pick up both cell death and proliferation.
Bovine VSMCs were seeded in 96 well plates and cultured in M199/20% FCS for 1 day. Then, the cells were incubated with inhibitor concentrations from 0.5 to 100 μM (in M199 medium+5% FBS). The cells were incubated with the inhibitors for 7 days; every 2-3 days the medium −/+inhibitors was exchanged. Then, the MTT assay was performed. The stock vehicle DMSO was tested at corresponding concentrations to the inhibitors at 0.1% DMSO or less.

Data set [2] deals with human monocyte-macrophages (HMMs). Nature of the data set: MTT toxicity assay, HMMs, seven days (Example 3). To be noted: 7 days; for Cell viability by MTT, percent of control: mean of three experiments. It counts as cell-based. In general terms: Tetrazolium assays rely on reduction of a dye to a coloured formazan, in cell work by metabolically active cells.
Procedure: A similar set of toxicity experiments was performed with human monocyte-macrophages (HMMs).

Consider `O=C1NCCc2c(OCCCCN3CCCCC3)cccc21` [DPQ, 3,4-dihydro-5-[4-(1-piperidinyl)butoxyl]-1(2H)-isoquinolinone], for which the “Cell viability of bVSMCs after seven days (MTT signal, relative to control)” value is 100.30 in data set [1] (0.5 uM); 101.78 in data set [1] (1 uM); 92.11* in data set [1] (2 uM); 94.96 in data set [1] (5 uM); 92.58* in data set [1] (10 uM); 94.24* in data set [1] (20 uM). In addition, the figures for the “Cell viability of bVSMCs after seven days (MTT signal, relative to control)” value in data set [1] (50 uM) and in data set [1] (100 uM) were 89.46* and 89.87*, respectively. For the same compound, the “Toxicity to bVSMCs (MTT assay, in words)” value in data set [1] (at the concentrations tested (0.5 to 100 μM)) is on record as “virtually non-toxic”. Also, the “Cell viability by MTT, percent of control” value in data set [2] (0.5 uM) is listed as 106.61; in data set [2] (1 uM), 88.68; in data set [2] (2 uM) it was 89.59; in data set [2] (5 uM), 95.11; in data set [2] (10 uM), 91.82; in data set [2] (20 uM) it was 91.99. Moreover, the “Cell viability by MTT, percent of control” value in data set [2] (50 uM) is recorded as 86.74; in data set [2] (100 uM) it was 90.94. Moreover, the “Toxicity to HMMs (in words)” value in data set [2] (at a concentration of 100 μM) is “relatively innocuous”.
